In data set [1] the target is Ba/F3 (KRAS-G12C-Q99L) cells (Homo sapiens, UniProt P01116, G12C/Q99L, cells depend on it). Nature of the data set: Proliferation experiment of Ba/F3 (KRAS-G12C-Q99L) cells. The following applies: 72 hours, Cell Titer-Glo, read-out: Test Example 6 IC50. Format: cell-based. How it is done: Engineered cell strain Ba/F3 (KRAS-G12C-Q99L) was a cell strain constructed by the inventors according to the methods described in Warmuth M. et al, Curr Opin Oncol. […] The cells were grown at 37° C. in a humidified incubator with 5% CO2.
Ba/F3 (KRAS-G12C-Q99L) cells, sequence (P01116 whole entry G12C/Q99L): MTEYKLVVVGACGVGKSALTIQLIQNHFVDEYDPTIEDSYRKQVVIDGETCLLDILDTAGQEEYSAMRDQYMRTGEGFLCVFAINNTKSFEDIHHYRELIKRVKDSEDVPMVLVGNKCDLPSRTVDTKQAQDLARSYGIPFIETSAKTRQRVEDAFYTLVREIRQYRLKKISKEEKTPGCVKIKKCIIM
(§1) According to the solution described in Cell Titer-Glo Luminescent cell Viability Assay (Promega catalog number #G7570) of Promega Corporation, the number of living cells in the culture was detected. 90 μL of cells (3,000 cells/well) were cultured in a growth medium in a Corning black transparent bottom 96-well plate and were cultured overnight in a 5% CO2 humidified incubator at 37° C. The compound diluted serially in 100% DMSO was added to the cells by a pipette, and the cells were cultured for another 72 hours. 100 μL of the well-mixed Cell Titer-Glo reagent was added to the cells in the 96-well culture plate to lyse the cells and gently mixed. Subsequently, […] was detected on an Envision microplate detector, and the data of each compound was obtained. Finally, the data was input into a suitable software package (such as Prism) for curve fitting analysis.
A general note: In ATP-based viability assays light output follows the ATP content of the culture.

The nature of data set [2]: In vitro human liver microsome stability experiment. It counts as in vitro ADME. The following applies: human liver microsomes; for half-life / microsomal CLint: 1 mg/mL microsome protein, NADPH, 37° C.; for microsomal CLint: read-out: CLint(mic); for CLint scaled: scaled to liver. How it is done:
Eight 96-well incubation plates were prepared, named [NT], Blank60, and NCF60, respectively. […] No compound to be tested or control compound was added to the Blank60 plate and samples were taken after 60 minutes of incubation. The NCF60 plate, in which a potassium phosphate buffer was used instead of an NADPH regeneration system solution (Sigma, N0505), was incubated for 60 minutes. […] Only the working solution of microsomes was added to the Blank60 plate, and the incubation plates Blank60, T5, T15, T30, T45, and T60 except TO and NCF60 were then placed in a water bath at 37° C. for pre-incubation for about 10 minutes. To the TO plate sample, 600 μL of a stop solution (acetonitrile:methanol (95:5, v/v) solution containing 100 ng/mL tolbutamide (Sigma, T0891)) was added first, and then an NADPH regeneration system working solution was added. 98 μL of a potassium phosphate buffer was added to each well of the NCF60 plate and incubated for 60 minutes. After the pre-incubation in the incubation plates Blank60, T5, T15, T30, T45, and T60 was complete, 98 μL of the NADPH regeneration system working solution was added to each sample well to initiate the reaction. After an appropriate incubation time (such as 5, 15, 30, 45, and 60 minutes), 600 μL of the stop solution was added to each sample well and control sample well in the Blank60, […] the reaction. All the sample plates were shaken evenly and centrifuged at 3220×g for 20 minutes. 200 μL of each test sample supernatant was taken and diluted into 200 μL of an aqueous solution containing 0.3% formic acid for LC-MS/MS analysis, and 100 μL of the control sample supernatant was taken and diluted into 300 μL of pure water for LC-MS/MS analysis. Calculations were carried out according to the following formulas: […]

The test system of data set [3] is NCI-H23 cells (KRAS G12C mutant cell line). Nature of the data set: Proliferation experiment of NCI-H23 cells (Cell Titer-Glo). Format: cell-based. The following applies: Homo sapiens, 72 hours, read-out: Test Example 2 IC50. How it is done:
Human lung cancer cell line NCI-H23 (ATCC, CRL-5800) was a KRAS G12C mutant cell line.
as §1, with “(8,000” for “(3,000”

Data set [4] addresses Ba/F3 (KRAS-G12C-H95Q) cells (Homo sapiens, UniProt P01116, G12C/H95Q, cells depend on it). Nature of the data set: Proliferation experiment of Ba/F3 (KRAS-G12C-H95Q) cells. It counts as cell-based. To be noted: 72 hours, Cell Titer-Glo, read-out: Test Example 4 IC50. How it is done:
Engineered cell strain Ba/F3 (KRAS-G12C-H95Q) was a cell strain constructed by the inventors according to the methods described in Warmuth M. et al, Curr Opin Oncol. […] The cells were grown at 37° C. in a humidified incubator with […].
as §1

The subject of data set [5] is NCI-H358 cells (KRAS G12C mutant cell line). The data set can be described thus: Proliferation experiment of NCI-H358 cells (Cell Titer-Glo). Format: cell-based. The following applies: Homo sapiens, 72 hours, read-out: Test Example 1 IC50. How it is done: as §1, with “(8,000” for “(3,000”
The target of data set [6] is Ba/F3 (KRAS-G12C-Y96C) cells (Homo sapiens, UniProt P01116, G12C/Y96C, cells depend on it). Nature of the data set: Proliferation experiment of Ba/F3 (KRAS-G12C-Y96C) cells. Format: cell-based. The following applies: 72 hours, Cell Titer-Glo, read-out: Test Example 3 IC50. How it is done:
Engineered cell strain Ba/F3 (KRAS-G12C-Y96C) was a cell strain constructed by the inventors according to the methods described in Warmuth M. et al, Curr Opin Oncol. […] The cells were grown at 37° C. in a humidified incubator with […].
as §1, with “[…]” for “5%”

For data set [7], the target named is Ba/F3 (KRAS-G12C-R68S) cells (Homo sapiens, UniProt P01116, G12C/R68S, cells depend on it). The data set can be described thus: Proliferation experiment of Ba/F3 (KRAS-G12C-R68S) cells. It counts as cell-based. To be noted: 72 hours, Cell Titer-Glo, read-out: Test Example 5 IC50. How it is done: Engineered cell strain Ba/F3 (KRAS-G12C-R68S) was a cell strain constructed by the inventors according to the methods described in Warmuth M. et al, Curr Opin Oncol. […] The cells were grown at 37° C. in a humidified incubator with 5% CO2.
Ba/F3 (KRAS-G12C-R68S) cells, sequence (P01116 whole entry G12C/R68S): as the sequence (P01116 whole entry G12C/Q99L) above, with R68S, L99Q counted along it
as §1

The structures appear in SMILES notation.

The term half-life denotes the time in which the quantity being followed falls by half. A high value points to slow decline. In general, CLint scaled refers to a measure of how fast metabolising enzymes remove a compound, apart from limits set by blood flow. Read a low CLint scaled as slow turnover. In general, IC50 refers to the concentration that inhibits the measured activity by half.

Ba/F3 (KRAS-G12C-H95Q) cells, sequence (P01116 whole entry G12C/H95Q): as the sequence (P01116 whole entry G12C/Q99L) above, with H95Q, L99Q counted along it
Ba/F3 (KRAS-G12C-Y96C) cells, sequence (P01116 whole entry G12C/Y96C): as the sequence (P01116 whole entry G12C/Q99L) above, with Y96C, L99Q counted along it

With `C=C(F)C(=O)N1CCN(c2nc(OCC34CCCN3CCC4)nc3c(F)c(-c4cc(O)cc5cccc(Cl)c45)c(F)cc23)C[C@@H]1CC#N` [Compound 22A, 2-((2S)-4-(7-(8-chloro-3-hydroxynaphth-1-yl)-6,8-difluoro-2-((tetrahydro-1H-pyrrolizin-7a(5H)-yl)methoxy)quinazolin-4-yl)-1-(2-fluoroacryloyl)piperazin-2-yl)acetonitrile], the GI50 stood at 11.1 nM in data set [1], 23.9 nM in data set [4], 7.23 nM in data set [6] and 34.1 nM in data set [7]. In addition, the half-life in data set [2] is 39.2 min. In data set [2], the microsomal CLint was determined as 35.6 µL/min/mg. In data set [2], this molecule registered an intrinsic clearance (CLint scaled) of 33 mL/min/kg. For the same molecule, the values for the IC50 in data set [3] and in data set [5] were 0.76 nM and 0.47 nM, respectively.
On to `C#Cc1c(F)ccc2cc(O)cc(-c3c(F)cc4c(N5CCN(C(=O)C(=C)F)[C@@H](CC#N)C5)nc(OC[C@@]56CCCN5C[C@H](F)C6)nc4c3F)c12` [Compound 24A, 2-((2S)-4-(7-(8-ethynyl-7-fluoro-3-hydroxynaphth-1-yl)-6,8-difluoro-2-(((2R,7aS)-2-fluorotetrahydro-1H-pyrrolizin-7a(5H)-yl)methoxy)quinazolin-4-yl)-1-(2-fluoroacryloyl)piperazin-2-yl)acetonitrile], for which the GI50 turned out to be 4 nM in data set [1], 7.6 nM in data set [4], 4 nM in data set [6] and 5.5 nM in data set [7]. In data set [2], this molecule showed a half-life of 17.1 min. Besides, the microsomal CLint in data set [2] stood at 81.3 µL/min/mg. The same molecule registered an intrinsic clearance (CLint scaled) in data set [2] of 73.2 mL/min/kg. For the same molecule, the IC50 in data set [3] was found to be 0.52 nM; in data set [5], 0.25 nM.
As to `C#Cc1c(F)ccc2cc(O)cc(-c3ccc4c(N5CCN(C(=O)C(=C)F)[C@@H](CC#N)C5)nc(OCC56CCCN5CCC6)nc4c3F)c12` [Compound 12, (S)-2-(4-(7-(8-ethynyl-7-fluoro-3-hydroxynaphth-1-yl)-8-fluoro-2-((tetrahydro-1H-pyrrolizin-7a(5H)-yl)methoxy)quinazolin-4-yl)-1-(2-fluoroacryloyl)piperazin-2-yl)acetonitrile], the GI50 in data set [1] was 24.4 nM; in data set [4], 41.6 nM; in data set [6], 26.2 nM; in data set [7] it was 51.4 nM. In addition, in data set [2], the half-life was 30.9 min. Moreover, the microsomal CLint in data set [2] was determined as 56.2 µL/min/mg. The CLint scaled in data set [2] came to 49.6 mL/min/kg. Also, the 50% inhibitory concentration (IC50) in data set [3] is 1.02 nM; in data set [5] it was 0.66 nM.

The record behind these values is patent US20250154156A1, “QUINAZOLINE DERIVATIVE AS KRAS G12C MUTATION INHIBITOR” (Shenzhen Forward Pharmaceuticals Co., Limited, priority 2022, published 2025).
